Experimental data published in patent publication US10702507B2, “Endoparasite control agent” (THE UNIVERSITY OF TOKYO, priority 2014, dated 2020).

tested on: 1st-stage larvae of Haemonchus contortus; assay: Test for effect on motion of larvae of Haemonchus nematode; details: 20 larvae per well, 27° C./95% RH for 4 days, corrected against DMSO negative control, duplicate
Protocol: Test for Effect on Motion of Larvae of Haemonchus Nematode (Haemonchus contortus) The compound of the present invention was prepared as solutions in 100% DMSO at the final concentrations of 50 ppm, 5 ppm, 0.5 ppm, 0.05 ppm and 0.005 ppm. DMSO stands for dimethyl sulfoxide. A larval suspension containing 1st-stage larvae of Haemonchus contortus harvested by the Baermann technique (for example, see K. Nakazono et al., “Inclination of Baermann funnel wall and efficiency of nematode extraction” Proc. Assoc. Pl. Prot. Kyushu 33: 126-130 (1987)) was placed at a density of 20 larvae per well in a test plate, and 0.5 μL/well of the test solution containing the compound of the present invention diluted to a predetermined concentration was added to the test plate. The plate was kept under the conditions of 27° C./95% RH for 4 days. In the test, ivermectin was used for the positive control and DMSO was used for the negative control. The motor ability of the larvae was examined with an automatic analyzer equipped with an LCD camera. The inhibitory effect on the motion of the larvae in each treatment plot was corrected based on the inhibitory effect in the plot treated with DMSO only for the negative control. The EC50 value was calculated from the data on the corrected inhibitory effect on the motion of the larvae, and graded according to the criteria shown below. The test was conducted in duplicate per plot.

Compound	EC50 value of corrected inhibitory effect on the motion of the larvae, graded
O=C(NCCc1ccc(Oc2ccccc2)cc1Cl)c1ccccc1I [Compound 1-39]	C or higher
O=C(NCCc1ccc(Oc2ccc(C(F)(F)F)cc2)cc1Cl)c1ccccc1I [Compound 1-40]	C or higher
CC(C)(CNC(=O)c1ccccc1C(F)(F)F)c1ccc(Oc2ncc(C(F)(F)F)cc2Cl)cc1Cl [Compound 1-44]	C or higher
CC(C)(CNC(=O)c1ccccc1C(F)(F)F)c1ccc(Oc2ccc(C(F)(F)F)cn2)cc1Cl [Compound 1-45]	C or higher
CC(C)(CNC(=O)c1ccccc1C(F)(F)F)c1ccc(Oc2ncc(Cl)cc2Cl)cc1Cl [Compound 1-46]	C or higher
O=C(NCC1(c2ccc(Oc3ncc(C(F)(F)F)cc3Cl)cc2Cl)CC1)c1ccccc1C(F)(F)F [Compound 1-47]	C or higher
O=C(NCC1(c2ccc(Oc3ccc(C(F)(F)F)cn3)cc2Cl)CC1)c1ccccc1C(F)(F)F [Compound 1-48]	C or higher
O=C(NCC1(c2ccc(Oc3ncc(Cl)cc3Cl)cc2Cl)CC1)c1ccccc1C(F)(F)F [Compound 1-49]	C or higher
O=C(NCCc1ccc(-c2ccc(C(F)(F)F)cc2)cc1Cl)c1ccccc1C(F)(F)F [Compound 1-50]	C or higher
O=C(NCCc1ccc(-c2cccc(C(F)(F)F)c2)cc1Cl)c1ccccc1C(F)(F)F [Compound 1-51]	C or higher
O=C(NCCc1ccc(-c2cc(F)cc(F)c2)cc1Cl)c1ccccc1C(F)(F)F [Compound 1-52]	C or higher
COc1ccc(-c2ccc(CCNC(=O)c3ccccc3C(F)(F)F)c(Cl)c2)cc1 [Compound 1-53]	C or higher
O=C(NCCc1ccc(-c2ccccc2)cc1Cl)c1ccccc1C(F)(F)F [Compound 1-54]	C or higher
O=C(NCCc1ccc(-c2ccncc2)cc1Cl)c1ccccc1C(F)(F)F [Compound 1-55]	C or higher
O=C(NCCc1ccc(-c2cccnc2)cc1Cl)c1ccccc1C(F)(F)F [Compound 1-56]	C or higher
COC(CNC(=O)c1ccccc1C(F)(F)F)c1ccc(Oc2nc3ccccc3s2)cc1Cl (centres unmarked) [Compound 1-63]	C or higher
COC(CNC(=O)c1ccccc1C(F)(F)F)c1ccc(Oc2ccc(C(F)(F)F)cc2)cc1Cl (centres unmarked) [Compound 1-65]	C or higher
COC(CNC(=O)c1ccccc1C(F)(F)F)c1ccc(Oc2cccnc2)cc1Cl (centres unmarked) [Compound 1-67]	C or higher
O=C(NCCc1ncc(-c2ccccc2)cc1Cl)c1ccccc1C(F)(F)F [Compound 2-1]	C or higher
O=C(NCCc1ncc(-c2ccc(C(F)(F)F)cc2)cc1Cl)c1ccccc1C(F)(F)F [Compound 2-2]	C or higher
O=C(NCCc1ncc(-c2cccc(C(F)(F)F)c2)cc1Cl)c1ccccc1C(F)(F)F [Compound 2-3]	C or higher
O=C(NCCc1ncc(-c2cc(F)cc(F)c2)cc1Cl)c1ccccc1C(F)(F)F [Compound 2-4]	C or higher
COc1ccc(-c2cnc(CCNC(=O)c3ccccc3C(F)(F)F)c(Cl)c2)cc1 [Compound 2-5]	C or higher
